Patent publication US11427548B2 (Arvinas Operations, Inc., priority 2015, dated 2022)
Where two headings read alike, the source gives them in different places.

Molecular target: T1, Androgen Receptor (Homo sapiens, UniProt P10275)
T1 construct: endogenous in cells; host or cells: VCaP cells
T1 sequence (P10275 1-920): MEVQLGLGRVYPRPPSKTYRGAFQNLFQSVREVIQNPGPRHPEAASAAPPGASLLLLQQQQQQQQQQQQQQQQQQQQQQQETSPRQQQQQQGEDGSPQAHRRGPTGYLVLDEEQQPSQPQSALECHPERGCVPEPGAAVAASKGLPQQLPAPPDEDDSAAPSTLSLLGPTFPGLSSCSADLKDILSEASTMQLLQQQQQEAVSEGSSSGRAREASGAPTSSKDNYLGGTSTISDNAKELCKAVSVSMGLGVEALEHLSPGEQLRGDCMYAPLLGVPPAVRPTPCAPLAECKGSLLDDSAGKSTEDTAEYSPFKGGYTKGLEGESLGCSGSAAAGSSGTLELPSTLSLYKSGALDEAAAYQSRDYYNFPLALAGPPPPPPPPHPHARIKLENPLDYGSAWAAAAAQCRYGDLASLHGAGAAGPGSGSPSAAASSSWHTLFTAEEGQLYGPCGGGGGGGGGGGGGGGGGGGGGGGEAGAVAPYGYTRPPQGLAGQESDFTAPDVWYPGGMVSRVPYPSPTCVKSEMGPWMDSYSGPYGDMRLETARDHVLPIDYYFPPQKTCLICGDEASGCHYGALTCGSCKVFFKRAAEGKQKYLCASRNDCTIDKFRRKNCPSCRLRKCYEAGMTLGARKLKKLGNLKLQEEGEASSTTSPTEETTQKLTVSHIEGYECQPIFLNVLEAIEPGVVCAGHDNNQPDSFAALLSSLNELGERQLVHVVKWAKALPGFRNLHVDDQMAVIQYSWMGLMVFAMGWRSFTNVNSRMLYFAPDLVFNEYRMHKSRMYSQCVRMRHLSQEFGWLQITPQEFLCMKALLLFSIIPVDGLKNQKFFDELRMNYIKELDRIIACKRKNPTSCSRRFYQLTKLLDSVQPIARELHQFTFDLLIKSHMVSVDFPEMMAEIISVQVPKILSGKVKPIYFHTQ
Test: Androgen Receptor ELISA assay (PathScan AR ELISA) in VCaP cells: AR degradation, Dmax and DC50
Format: cell-based
Description: 1. Androgen Receptor ELISA Assay.
The protocols used with VCaP cells are described below. The androgen receptor ELISA assay was performed using PathScan AR ELISA (Cell Signaling Catalog #12850) according to the following assay steps:
VCaP cells are seeded at 30,000 cells/well at a volume of 200 μL/well in VCaP assay medium [Phenol red free RPMI (Gibco Cat #11835-030); 5% Charcoal Stripped (Dextran treated) FBS (Omega Scientific, Cat #FB-04); Pen/Strep Life Technologies (Gibco Cat #: 10378-016); 0.1 nM R1881 (Sigma, Cat #R0908) is added upon the start of the assay, not during initial plating of the cells) in Corning 3904 plates. The cells are grown for a minimum of 3 days.
First, cells are dosed with compounds diluted in 0.1% DMSO—use a polypropylene plate according to the following protocol: (1)(i) make 1000× stock plate in DMSO; (ii) 20 mM stock diluted 1/6.7 with DMSO (5 μL+28.3 μL DMSO)=3 mM into row H; (iii) perform serial dilutions in ½ log doses (10 μL of PROTAC+20 μL DMSO) from row H towards row B. Reserve row A for DMSO; (iv) 7 doses total (final concentration in this 1000× plate will be 3 mM, 1 mM, 333 μM, 111 μM, etc). (2)(i) Make 10× stock plate in media; (ii) transfer 2.5 μL of the 1000× stock to a new 10× stock plate (use 12 channel pipet, start at A (DMSO control) work thru H. When 247.5 μL of media is added to this plate, it will serve as a 10× stock; (iii) make media+1 nM R1881 for making 10× stock plate; (iv) add 247.5 μL of media with 1 nM R1881 to each well of the 10× stock plate, mix.
Then 22 μL of 10× stock is added to cells and incubated for 24 h. 1× Cell Signaling Cell lysis buffer is made (Catalogue #9803; comes with the kit)—prepare for 50 μL/well. Keep on ice. Media is aspirated, and 50 μL 1× cell lysis buffer/well is added. The cells are placed on ice for 10 minutes. The solution is mixed and transferred to PCR plate, and centrifuged at 4C for 10 minutes at 4000 rpm.
5 μL is transferred to fresh plate (use immediately or freeze −80 C); 115 μL ELISA Dilutant is added (0.15 ug/ml-0.075 ug/ml; comes with the PathScan ELISA).
Add 100 μL/well AR Elisa; cover and shake, 37 C for 2 hrs; dump, tap, wash 4×200 μL ELISA wash buffer; add 100 μL/well mouse AR detection Ab; cover and shake, 37 C for 1 hr; dump, tap, wash 4×200 μL ELISA wash buffer; add 100 μL/well anti-mouse—HRP conjugated Ab (comes with the kit); cover and shake, 37 C for 30 min; allow TMB reagent to come to room temperature; dump, tap, wash 4×200 μL Elisa wash buffer; tap; add 100 μL TMB, shake 5 min—while watching color. Add the stop reagent when light blue color develops. Add 100 μL Stop solution; shake and read at 450 nm.

[1] = read-out: VCaP DC50; concentration that caused 50% Androgen Receptor degradation, VCaP cells

Row | SMILES | Dmax (VCaP, read-out: VCaP Dmax (%)) | DC50 [1] | further results
1 | Cc1ncsc1-c1ccc([C@H](C)NC(=O)[C@@H]2C[C@H](O)CN2C(=O)[C@@H](NC(=O)COCCN2CCN(c3ccc(C(=O)N[C@H]4C(C)(C)[C@H](Oc5ccc(C#N)c(Cl)c5)C4(C)C)cn3)CC2)C(C)(C)C)cc1 (stereo in doubt) [Example 608, N-((1r,3r)-3-(3-chloro-4-cyanophenoxy)-2,2,4,4-tetramethylcyclobutyl)-6-(4-(2-(2-(((S)-1-((2S,4R)-4-hydroxy-2-(((S)-1-(4-(4-methylthiazol-5-yl)phenyl)ethyl)carbamoyl)pyrrolidin-1-yl)-3,3-dimethyl-1-oxobutan-2-yl)amino)-2-oxoethoxy)ethyl)piperazin-1-yl)nicotinamide] |  |  | DC50 (VCaP cells; Table 36; read-out: VCaP DC50): < 50 nM; Dmax (VCaP, VCaP cells; Table 36; read-out: VCaP Dmax (%)): > 71%
2 | Cc1nccn1-c1ccc([C@H](C)NC(=O)[C@@H]2C[C@@H](O)CN2C(=O)C(C(C)C)n2cc(OCCCOCCCCCOc3ccc(N4C(=S)N(c5ccc(C#N)c(C(F)(F)F)c5)C(=O)C4(C)C)cc3)cn2)cc1 (stereo in doubt) [Example 612, (2S,4R)-1-((R)-2-(4-(3-((5-(4-(3-(4-cyano-3-(trifluoromethyl)phenyl)-5,5-dimethyl-4-oxo-2-thioxoimidazolidin-1-yl)phenoxy)pentyl)oxy)propoxy)-1H-pyrazol-1-yl)-3-methylbutanoyl)-4-hydroxy-N-((S)-1-(4-(2-methyl-1H-imidazol-1-yl)phenyl)ethyl)pyrrolidine-2-carboxamide] |  |  | VCaP Dmax (%) (VCaP cells; Table 36): _+; DC50 (read-out: VCaP DC50; VCaP cells; Table 36): > 501 nM
3 | Cc1ncsc1-c1ccc(CNC(=O)[C@@H]2C[C@@H](O)CN2C(=O)[C@@H](NC(=O)COCCCOCCC(O)CCOc2ccc(N3C(=S)N(c4ccc(C#N)c(C(F)(F)F)c4)C(=O)C3(C)C)cc2)C(C)(C)C)cc1 (stereo partly drawn) [Example 13, (2S,4R)-1-[(2S)-2-[2-(3-{[5-(4-{3-[4-cyano-3-(trifluoromethyl)phenyl]-5,5-dimethyl-4-oxo-2-sulfanylideneimidazolidin-1-yl}phenoxy)-3-hydroxypentyl]oxy}propoxy)acetamido]-3,3-dimethylbutanoyl]-4-hydroxy-N-{[4-(4-methyl-1,3-thiazol-5-yl)phenyl]methyl}pyrrolidine-2-carboxamide] | 26 to 50% | < 50 nM | 
4 | CC(C)(C)[C@H](NC(=O)COCCCOCCCCCOc1ccc(N2C(=S)N(c3ccc(C#N)c(C(F)(F)F)c3)C(=O)C2(C)C)cc1)C(=O)N1C[C@H](O)C[C@H]1C(=O)NCc1ccc(Cl)cc1 [Example 14, (2S,4R)-N-[(4-chlorophenyl)methyl]-1-[(2S)-2-[2-(3-{[5-(4-{3-[4-cyano-3-(trifluoromethyl)phenyl]-5,5-dimethyl-4-oxo-2-sulfanylideneimidazolidin-1-yl}phenoxy)pentyl]oxy}propoxy)acetamido]-3,3-dimethylbutanoyl]-4-hydroxypyrrolidine-2-carboxamide] |  | > 501 nM | 
5 | CC(C)(C)[C@H](NC(=O)COCCCOCCCCCOc1ccc(N2C(=S)N(c3ccc(C#N)c(C(F)(F)F)c3)C(=O)C2(C)C)cc1)C(=O)N1C[C@H](O)C[C@H]1C(=O)NCc1ccc(C#N)cc1 [Example 15, (2S,4R)-1-[(2S)-2-[2-(3-{[5-(4-{3-[4-cyano-3-(trifluoromethyl)phenyl]-5,5-dimethyl-4-oxo-2-sulfanylideneimidazolidin-1-yl}phenoxy)pentyl]oxy}propoxy)acetamido]-3,3-dimethylbutanoyl]-N-[(4-cyanophenyl)methyl]-4-hydroxypyrrolidine-2-carboxamide] | 26 to 50% | < 50 nM | 
6 | Cc1ncsc1-c1ccc(CNC(=O)[C@@H]2C[C@@H](O)CN2C(=O)[C@@H](NC(=O)COCCOCCOCCOc2ccc(N3C(=S)N(c4ccc(C#N)c(C(F)(F)F)c4)C(=O)C3(C)C)cc2)C(C)(C)C)cc1 [Example 16, (2S,4R)-1-[(2S)-2-[2-(2-{2-[2-(4-{3-[4-cyano-3-(trifluoromethyl)phenyl]-5,5-dimethyl-4-oxo-2-sulfanylideneimidazolidin-1-yl}phenoxy)ethoxy]ethoxy}ethoxy)acetamido]-3,3-dimethylbutanoyl]-4-hydroxy-N-{[4-(4-methyl-1,3-thiazol-5-yl)phenyl]methyl}pyrrolidine-2-carboxamide] | 26 to 50% |  | 
7 | Cc1ncsc1-c1ccc(CNC(=O)[C@@H]2C[C@@H](O)CN2C(=O)[C@@H](NC(=O)COCCCCOCCCCOc2ccc(N3C(=S)N(c4ccc(C#N)c(C(F)(F)F)c4)C(=O)C3(C)C)cc2F)C(C)(C)C)cc1 [Example 26, (2S,4R)-1-[(2S)-2-(2-{4-[4-(4-{3-[4-cyano-3-(trifluoromethyl)phenyl]-5,5-dimethyl-4-oxo-2-sulfanylideneimidazolidin-1-yl}-2-fluorophenoxy)butoxy]butoxy}acetamido)-3,3-dimethylbutanoyl]-4-hydroxy-N-{[4-(4-methyl-1,3-thiazol-5-yl)phenyl]methyl}pyrrolidine-2-carboxamide] | 51 to 70% | < 50 nM | 
8 | CC(C)(C)[C@H](NC(=O)COCCCOCCCCOc1ccc(N2C(=S)N(c3ccc(C#N)c(C(F)(F)F)c3)C(=O)C2(C)C)cc1)C(=O)N1C[C@H](O)C[C@H]1C(=O)NCc1ccc(-c2cncs2)cc1 [Example 33, (2S,4R)-1-[(2S)-2-(2-{3-[4-(4-{3-[4-cyano-3-(trifluoromethyl)phenyl]-5,5-dimethyl-4-oxo-2-sulfanylideneimidazolidin-1-yl}phenoxy)butoxy]propoxy}acetamido)-3,3-dimethylbutanoyl]-4-hydroxy-N-{[4-(1,3-thiazol-5-yl)phenyl]methyl}pyrrolidine-2-carboxamide] | 51 to 70% | < 50 nM | 
9 | CC(C)(C)[C@H](NC(=O)COCCCOCCCCOc1ccc(N2C(=S)N(c3ccc(C#N)c(C(F)(F)F)c3)C(=O)C2(C)C)cc1)C(=O)N1C[C@H](O)C[C@H]1C(=O)NCc1ccc(-c2cnco2)cc1 [Example 34, (2S,4R)-1-[(2S)-2-(2-{3-[4-(4-{3-[4-cyano-3-(trifluoromethyl)phenyl]-5,5-dimethyl-4-oxo-2-sulfanylideneimidazolidin-1-yl}phenoxy)butoxy]propoxy}acetamido)-3,3-dimethylbutanoyl]-4-hydroxy-N-{[4-(l,3-oxazol-5-yl)phenyl]methyl}pyrrolidine-2-carboxamide] | > 71% | < 50 nM | 
